From patent US8609417B2, “Methods and compositions for stem cell cultures” (The Regents of the University of California, priority 2009, dated 2013)

Tests used:
Format in all cases: cell-based, human
cleaved caspase-3 = assay: Western analysis of cleaved caspase-3; conditions: hiPS cells under adherence condition
Procedure: Total protein was extracted with RIPA buffer (20 mM Tris-HCl, pH 7.5, 150 mM NaCl, 1 mM Na2EDTA, 1 mM EGTA, 1% NP-40, 1% sodium deoxycholate, 2.5 mM sodium pyrophosphate, 1 mM β-glycerophosphate, 1 mM Na3VO4, and protease inhibitors). Protein concentrations were determined by BCA Protein Assay kit (Pierce). An equal amount (20 μg) of protein was loaded in each lane, separated by 10% SDS/PAGE, and transferred onto a PVDF membrane (BioRad). The membrane was blocked in Odyssey blocking buffer (LI-COR Biotechnology), and subsequently incubated with primary antibodies against Oct3 (Santa Cruz Biotechnology), Nanog (Millipore), myosin IIA (Covance), myosin IIB (Covance), cleaved caspase-3 (Cell Signaling), or β-actin (Sigma) at 4° C. overnight followed by incubation with peroxidase-conjugated goat anti-mouse IgG or goat anti-rabbit IgG (Jackson ImmunoResearch, Inc.), and developed with ECL reagent (GE Healthcare).

hiPS cells [1] = assay: Clonal assay evaluated by alkaline phosphatase (ALP) assay; conditions: single cell per well, Matrigel-coated 96-well plates, blebbistatin 5 μM, 7 days
Procedure: hES or hiPS cells in mTeSR supplemented with or without blebbistatin were plated on Matrigel-coated 96-well plates at a single cell per well. Seven days after plating, cells were subjected to alkaline phosphatase assay using Alkaline Phosphatase Detection Kit (Millipore) according to the manufacturer's instruction.

hiPS cells [2] = assay: Defined culture on PDL coating in mTeSR (self-renewal over passages)
Procedure: Cell culture. Two independent hES cell lines, H9 (WiCell) and BGN01 (BresaGen), were examined. hiPS cells used in the study include iPS (Foreskin) Clone 1 (WiCell) and two independently derived hiPS cells from normal human dermal fibroblasts (NHDF) which have been characterized by a series of molecular and functional assays. For the regular feeder-free culture, hES or hiPS cells were grown on Matrigel (BD Biosciences)-coated plates in a defined medium, mTeSR (StemCell Technologies). Cells were regularly passaged by the standard method using dispase (Invitrogen) or trypsin-EDTA (Lonza). General stem cell culture techniques are described in Freshney et al., Culture of Human Stem Cells (Culture of Specialized Cells), John Wiley & Sons, 1992 (the disclosure of which is incorporated herein by reference for all purposes). mES cells used in the experiment include CJ7, E14, RW4 (a parental line of NMHCIIA^−/A^− mES cells), NMHCIIA^−/A^−, and NMHCIIB^−/B^− mES cells. Cells were maintained on either mitotically inactivated mouse embryonic fibroblasts or gelatin (Sigma)-coated dishes with the standard medium in the presence of leukemia inhibitory factor (LIF) at 1400 U/ml (Millipore). For the microscopic or immunofluorescent analysis, cells were plated at approximately 5000-10000 cells/cm^2. For the defined culture, cells were plated at approximately 10000 cells/cm^2 on plates freshly coated with PDL or PDL-precoated plates (BD Bioscience) in mTeSR supplemented with 2.5 to 5 μM of blebbistatin or Y-27632. Medium was changed every day or every other day depending on confluency. Cells were passaged by using trypsin-EDTA every 3 to 4 days.

hiPS cells and hES cells = assay: Cell survival / embryoid body formation in low-density suspension culture; conditions: compared with Y27632
Source text: While hiPS and hES cells can form cell aggregates and subsequently grow as embryoid bodies when plated at high densities on non-adhesive culture surfaces such as non-tissue culture-treated plates, they mostly undergo apoptosis when plated at low densities that prevent cells from forming aggregates. This is because human pluripotent stem cells are epithelical cells that are programmed to activate cell death signals upon detachment from culture surface (anoikis).

hiPS cells [3] = assay: Cell viability assay under adherence conditions (trypan blue live cell counting); conditions: 10 μM, 24 h after plating 1×10^5 cells/well, n=3
Procedure: hES or hiPS cells were plated at 1×10^5 cells/well on 12-well plates coated with PDL or Matrigel in mTeSR in the presence or absence of blebbistatin or Y-27632 at various concentrations in triplicates. DMSO (solvent for blebbistatin) was also added in the control condition and found to have no effect on viability. For mES cells, cells were plated under the same condition except for the use of gelatin coating and mES medium. After 24 h, cells were harvested, trypsinized to single cells, and counted by hemocytometer. Cell counting was performed independently by two researchers to confirm the consistency. The same samples were used for TUNEL assay immediately after taking a small fraction of the sample for cell counting.

hiPS cells [4] = assay: TUNEL assay (apoptosis)
Procedure: The samples in triplicates used for cell viability assay were immediately tested by TUNEL assay by using APO-DIRECT kit (BD Pharmingen) according to the manufacturer's protocol. The number of TUNEL (FITC) or propidium iodide (PI)-positive cells was counted by hemocytometer under fluorescent microscopy with 20× objective. When necessary, FITC-labeled cells were verified by using 40× objective to exclude non-specific signal. At least 300 cells were evaluated per each sample and counting was repeated for 2 times. The ratio of the number of TUNEL-positive cells to the number of PI-positive cells was calculated. The representative result was shown in the figure from experiments repeated for at least 3 times. Although flow cytometric analysis was initially attempted, due to persistent cell aggregations from suspension culture experiments even after extensive trypsinization and trituration, we decided to switch to manual cell counting which well correlated with the data obtained from cell viability assay.

hES cells = assay: Cell-cell contact of hES cells (morphology, cell contact index); conditions: hES cells, 10 μM
Procedure: Rock and myosin II regulate cell-cell interactions in hES cells. To test whether the observed function of RRM signaling in cell-cell contacts in mES cells is conserved in hES cells, H1 cells grown under the feeder-free condition with Matrigel™ and conditioned medium (CM) (FIG. 3A) were treated with C3 exoenzyme. […] Rock-inhibitor treatment also led to cell adhesion defects although it required a higher concentration (20 μM) than that (10 μM) for mES cells (FIG. 3C). Myosin IIA and IIB were colocalized with cell-cell borders in hES cells, which indicates their potential role in cell-cell adhesions (FIG. 3D).

Cc1ccc2c(c1)C(=O)C1(O)CCN(c3ccccc3)C1=N2 (centres unmarked) [blebbistatin, 1-Phenyl-1,2,3,4-tetrahydro-4-hydroxypyrrolo[2,3-b]-7-methylquinolin-4-one]
Cleaved caspase-3 level by Western analysis (cleaved caspase-3): decreased | Cloning efficiency (ratio of wells with an ALP-positive colony to wells seeded) (hiPS cells [1]): 29±1.8% | Growth and cell survival rates compared with Y27632 (hiPS cells [2]): higher growth and cell survival rates than the cells treated with Y27632 | Cytokinesis defects such as multinucleated cells (hiPS cells [2]; 2.5 μM, over 15 passages): without any signs of cytokinesis defects | Minimum concentration sufficient for supporting cell-matrix interactions but not affecting cell-cell adhesions (hiPS cells [2]; PDL-coating, mTeSR): 2.5 µM | Cell survival in low-density suspension culture (hiPS cells and hES cells): markedly increased cell survival | Number of viable cells (hiPS cells [3]; hiPS cells on Matrigel coating): 8.6±0.6×10^4 cells | Number of viable cells (hiPS cells [3]; hiPS cells on PDL): 7.9±0.6×10^4 cells | Level of apoptosis (TUNEL and cleaved caspase-3 assays) (hiPS cells [4]; hPS cells in suspension culture): significantly lower levels of apoptosis | TUNEL-positive cells (hiPS cells [4]; hiPS cells under adherence condition, 24 h, n=3 (control 73±2.5%)): 11±3.8% | Effect on cell-cell connections (hES cells): disrupted cell-cell connections
